Each structure is given as a SMILES string. Where only a bound is given, the exact number is not on record here.

The values below come from ChEMBL document CHEMBL4715770, “Inhibition of Low Molecular Weight Protein Tyrosine Phosphatase by an Induced-Fit Mechanism” (J Med Chem, 2016).

Assay [1] addresses Receptor-type tyrosine-protein phosphatase alpha (Homo sapiens, UniProt P18433). Put plainly: Inhibition of His-tagged PTPalpha (unknown origin) expressed in Escherichia coli BL21 cells using para-nitrophenyl phosphate as substrate incubated for 5 to 10 mins by microplate reader based spectrophotometric analysis.
In assay [2] the target is T1, Tyrosine-protein phosphatase non-receptor type 9 (Homo sapiens, UniProt P43378).
T1 sequence (P43378 whole entry): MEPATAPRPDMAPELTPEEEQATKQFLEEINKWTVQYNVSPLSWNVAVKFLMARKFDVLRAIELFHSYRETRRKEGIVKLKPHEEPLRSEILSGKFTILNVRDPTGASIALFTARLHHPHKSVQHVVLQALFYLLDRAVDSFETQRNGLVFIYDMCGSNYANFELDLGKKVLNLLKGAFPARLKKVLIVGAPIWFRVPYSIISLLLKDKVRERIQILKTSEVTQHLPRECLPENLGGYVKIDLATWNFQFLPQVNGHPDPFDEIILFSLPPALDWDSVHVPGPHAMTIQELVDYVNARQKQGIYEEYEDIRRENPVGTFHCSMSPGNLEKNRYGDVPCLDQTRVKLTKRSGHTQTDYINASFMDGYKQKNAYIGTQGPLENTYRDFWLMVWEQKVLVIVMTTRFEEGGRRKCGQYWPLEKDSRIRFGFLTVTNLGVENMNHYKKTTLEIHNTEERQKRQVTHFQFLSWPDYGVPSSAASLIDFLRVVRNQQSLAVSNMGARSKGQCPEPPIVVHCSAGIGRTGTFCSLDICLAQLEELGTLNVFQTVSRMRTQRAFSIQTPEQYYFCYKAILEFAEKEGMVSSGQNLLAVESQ
Put plainly: Inhibition of His-tagged PTP-MEG2 (unknown origin) expressed in Escherichia coli BL21 cells using para-nitrophenyl phosphate as substrate incubated for 5 to 10 mins by microplate reader based spectrophotometric analysis.

Assay [3] has as its target T2, Tyrosine-protein phosphatase non-receptor type 22 (Homo sapiens, UniProt Q9Y2R2).
T2 sequence (Q9Y2R2 whole entry): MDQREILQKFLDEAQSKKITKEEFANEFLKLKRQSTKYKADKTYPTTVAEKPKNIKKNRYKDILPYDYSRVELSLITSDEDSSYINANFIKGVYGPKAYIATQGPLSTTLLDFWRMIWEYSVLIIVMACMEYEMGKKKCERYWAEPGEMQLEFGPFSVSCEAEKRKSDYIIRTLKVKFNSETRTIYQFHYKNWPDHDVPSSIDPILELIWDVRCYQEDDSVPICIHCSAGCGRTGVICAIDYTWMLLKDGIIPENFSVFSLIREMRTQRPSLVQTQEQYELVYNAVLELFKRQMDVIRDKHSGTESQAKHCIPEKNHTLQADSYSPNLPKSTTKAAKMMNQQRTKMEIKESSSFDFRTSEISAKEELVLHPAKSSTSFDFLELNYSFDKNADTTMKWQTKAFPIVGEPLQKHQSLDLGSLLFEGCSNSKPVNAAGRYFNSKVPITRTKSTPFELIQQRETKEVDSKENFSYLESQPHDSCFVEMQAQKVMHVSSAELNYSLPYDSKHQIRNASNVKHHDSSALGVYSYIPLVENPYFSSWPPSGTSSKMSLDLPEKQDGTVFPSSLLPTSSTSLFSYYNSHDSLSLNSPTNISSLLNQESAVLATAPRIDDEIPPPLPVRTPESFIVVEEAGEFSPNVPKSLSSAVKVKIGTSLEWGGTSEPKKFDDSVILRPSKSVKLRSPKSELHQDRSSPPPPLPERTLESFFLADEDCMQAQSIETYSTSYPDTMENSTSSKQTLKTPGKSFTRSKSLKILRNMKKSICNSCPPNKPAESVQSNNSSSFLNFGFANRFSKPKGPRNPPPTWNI
Briefly: Inhibition of His-tagged LYP (unknown origin) expressed in Escherichia coli BL21 cells using para-nitrophenyl phosphate as substrate incubated for 5 to 10 mins by microplate reader based spectrophotometric analysis.

In assay [4] the target is T3, Tyrosine-protein phosphatase non-receptor type 12 (Homo sapiens, UniProt Q05209).
T3 sequence (Q05209 whole entry): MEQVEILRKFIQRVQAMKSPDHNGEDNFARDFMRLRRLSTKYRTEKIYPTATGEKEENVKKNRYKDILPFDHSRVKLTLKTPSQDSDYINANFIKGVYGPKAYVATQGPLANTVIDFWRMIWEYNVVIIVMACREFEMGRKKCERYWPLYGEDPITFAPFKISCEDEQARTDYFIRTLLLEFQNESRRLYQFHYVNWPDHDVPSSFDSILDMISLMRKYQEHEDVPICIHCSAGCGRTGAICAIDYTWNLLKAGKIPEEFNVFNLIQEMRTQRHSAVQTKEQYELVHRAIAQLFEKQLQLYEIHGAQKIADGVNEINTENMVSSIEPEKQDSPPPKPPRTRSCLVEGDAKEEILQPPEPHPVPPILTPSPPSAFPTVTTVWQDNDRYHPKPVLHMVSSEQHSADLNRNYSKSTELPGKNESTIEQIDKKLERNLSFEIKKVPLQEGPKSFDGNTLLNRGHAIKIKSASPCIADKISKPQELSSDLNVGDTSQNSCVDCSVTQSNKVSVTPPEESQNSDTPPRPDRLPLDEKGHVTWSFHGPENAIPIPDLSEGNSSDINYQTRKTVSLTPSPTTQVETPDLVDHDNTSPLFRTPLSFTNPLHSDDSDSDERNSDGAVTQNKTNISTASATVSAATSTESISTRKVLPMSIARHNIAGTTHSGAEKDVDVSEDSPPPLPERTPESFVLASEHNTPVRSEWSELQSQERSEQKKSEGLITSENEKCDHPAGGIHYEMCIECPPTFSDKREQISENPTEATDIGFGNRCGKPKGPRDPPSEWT
Put plainly: Inhibition of His-tagged PTP-PEST (unknown origin) expressed in Escherichia coli BL21 cells using para-nitrophenyl phosphate as substrate incubated for 5 to 10 mins by microplate reader based spectrophotometric analysis.

The target of assay [5] is T4, RNA polymerase II subunit A C-terminal domain phosphatase SSU72 (Homo sapiens, UniProt Q9NP77).
T4 sequence (Q9NP77 whole entry): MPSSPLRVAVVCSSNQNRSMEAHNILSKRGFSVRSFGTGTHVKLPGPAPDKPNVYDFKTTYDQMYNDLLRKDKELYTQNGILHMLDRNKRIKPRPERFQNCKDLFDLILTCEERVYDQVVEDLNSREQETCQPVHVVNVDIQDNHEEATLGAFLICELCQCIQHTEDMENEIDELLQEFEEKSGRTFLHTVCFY
Put plainly: Inhibition of His-tagged SSu72 (unknown origin) expressed in Escherichia coli BL21 cells using para-nitrophenyl phosphate as substrate incubated for 5 to 10 mins by microplate reader based spectrophotometric analysis.

Sequence of Receptor-type tyrosine-protein phosphatase alpha (P18433 whole entry): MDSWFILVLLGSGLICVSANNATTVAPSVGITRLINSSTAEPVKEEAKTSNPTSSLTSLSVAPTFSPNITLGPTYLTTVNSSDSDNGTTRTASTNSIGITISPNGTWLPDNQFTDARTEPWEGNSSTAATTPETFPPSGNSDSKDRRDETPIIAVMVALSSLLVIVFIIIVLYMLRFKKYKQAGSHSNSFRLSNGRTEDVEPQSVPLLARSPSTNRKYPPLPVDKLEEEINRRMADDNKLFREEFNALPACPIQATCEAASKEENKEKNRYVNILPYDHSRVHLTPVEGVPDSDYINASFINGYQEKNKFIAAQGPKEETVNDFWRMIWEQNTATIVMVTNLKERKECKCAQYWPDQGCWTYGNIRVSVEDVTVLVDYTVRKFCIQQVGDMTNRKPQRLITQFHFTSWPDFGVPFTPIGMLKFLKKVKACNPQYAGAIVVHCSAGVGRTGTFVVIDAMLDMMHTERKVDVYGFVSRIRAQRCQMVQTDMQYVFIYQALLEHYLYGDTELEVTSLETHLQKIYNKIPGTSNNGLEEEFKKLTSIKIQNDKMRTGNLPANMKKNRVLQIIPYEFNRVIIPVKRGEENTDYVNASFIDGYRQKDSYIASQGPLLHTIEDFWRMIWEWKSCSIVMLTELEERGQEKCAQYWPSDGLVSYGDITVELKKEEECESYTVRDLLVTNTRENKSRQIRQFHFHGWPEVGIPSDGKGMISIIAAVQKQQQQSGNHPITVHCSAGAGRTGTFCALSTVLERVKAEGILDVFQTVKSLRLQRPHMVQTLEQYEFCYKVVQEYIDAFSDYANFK

On to `O=C(Nc1ccc(OCc2ccccc2)c(Cl)c1)C(c1ccccc1)S(=O)(=O)O` (stereo not given), for which the IC50 in assay [1] and in assay [2] was above 200 µM each time.

`O=C(Nc1cc(C(F)(F)F)cc(C(F)(F)F)c1)C(c1ccccc1)S(=O)(=O)O` (stereo not given): the IC50 in assay [1] was above 200 µM; in assay [2] it was above 200 µM; in assay [3], above 200 µM; in assay [4], 66.9 µM; in assay [5], 83 µM.

Consider `O=C(Nc1ccc(-n2ccnc2)cc1)C(c1ccccc1)S(=O)(=O)O` (stereo not given), for which the IC50 in assay [1], in assay [2], in assay [3], in assay [4] and in assay [5] was above 100 µM in each case.

Turning to `Cc1c(Br)cc(NC(=O)C(c2ccccc2)S(=O)(=O)O)cc1Br` (stereo not given), the half-maximal inhibitory concentration (IC50) in assay [1], in assay [3] and in assay [5] was above 200 µM throughout.

As for `O=C(Nc1nc2ccc([N+](=O)[O-])cc2s1)C(c1ccccc1)S(=O)(=O)O` (stereo not given), the IC50 in assay [1], in assay [2], in assay [3], in assay [4] and in assay [5] was above 100 µM in each case.

Usually IC50 stands for the point on the concentration scale where inhibition reaches its midpoint. Read a low IC50 as greater potency in that assay.
